Read-outs that look alike come from different tables or passages of the source.
Tested on: overweighed healthy volunteers
Conditions: for ΔGIR (difference in Glucose Infusion Rate): single 2 hours continuous intravenous infusion, 8 volunteers
Procedure: This trial is a Phase 1, exploratory, monocentric, placebo-controlled, double blinded, crossover study.
Two groups of 8 male, overweighed (BMI 25-30 kg/m^2) healthy volunteers were included in this study.
The first 8 volunteers were included in the low dose group.
The next 8 volunteers were included in the high dose group.
Euglycemic Hyperinsulinemic Clamp Technique • Insulin (Actrapid®, NovoNordisk, Copenhagen, Denmark) was perfused for 4 hours at a constant supra-physiological rate (1 mU·Kg-1·min-1) resulting in the complete inhibition of hepatic glucose production. • Blood glucose level was measured every 5 min and maintained for 4 hours at a constant physiological value (5 mmol/l) adapting the rate of infusion of a 20% glucose solution.
The primary endpoint (deltaGIR) was the difference between the GIR measured during the steady state ending the “investigational product” perfusion phase (GIRperfusion) and the GIR measured during the steady state ending the “basal” phase (GIRbasal). Delta GIR=GIRperfusion−GIRbasal

(pyr1)-Apelin-13
change in ΔGIR versus placebo (in words) (9 nmol/kg intravenous, p=0.06): non-significant increase
ΔGIR (difference in Glucose Infusion Rate) (9 nmol/kg, p=0.06 versus placebo): +2.21±0.54 mg/kg/min
insulin sensitivity versus placebo (in words) (30 nmol/kg intravenous, p=0.03): significant improvement
ΔGIR (difference in Glucose Infusion Rate) (30 nmol/kg, p=0.03 versus placebo): +1.72±0.47 mg/kg/min
